Test results published in ChEMBL document CHEMBL4304811, “Development of a Water-Soluble Indolylmaleimide Derivative IM-93 Showing Dual Inhibition of Ferroptosis and NETosis” (ACS Med Chem Lett, 2019).

Tests used:
[1] = biological target: RAC-gamma serine/threonine-protein kinase (Homo sapiens) (UniProt Q9Y243); experiment: Binding affinity to wild-type human partial length AKT3 expressed in bacterial expression system assessed as residual binding level at 10 uM by Kinomescan method relative to control
[2] = biological target: Mitogen-activated protein kinase kinase kinase 5 (Homo sapiens) (UniProt Q99683); experiment: Binding affinity to wild-type human partial length ASK1 (E648 to S964 residues) expressed in bacterial expression system assessed as residual binding level at 10 uM by Kinomescan method relative to control
[3] = biological target: Serine/threonine-protein kinase B-raf (Homo sapiens) (UniProt P15056); experiment: Binding affinity to wild-type human partial length BRAF (S429 to E741 residues) expressed in mammalian expression system assessed as residual binding level at 10 uM by Kinomescan method relative to control
[4] = biological target: Macrophage colony-stimulating factor 1 receptor (Homo sapiens) (UniProt P07333); experiment: Binding affinity to wild-type human partial length autoinhibited CSF1R (Y538 to S939 residues) expressed in mammalian expression system assessed as residual binding level at 10 uM by Kinomescan method relative to control
[5] = biological target: Casein kinase I isoform alpha (Homo sapiens) (UniProt P48729); experiment: Binding affinity to wild-type human partial length CSNK1A1 (M1 to L450 residues) expressed in mammalian expression system assessed as residual binding level at 10 uM by Kinomescan method relative to control
[6] = biological target: Death-associated protein kinase 1 (Homo sapiens) (UniProt P53355); experiment: Binding affinity to wild-type human partial length DAPK1 (M1 to F296 residues) expressed in bacterial expression system assessed as residual binding level at 10 uM by Kinomescan method relative to control
[7] = system: Epidermal growth factor receptor (Homo sapiens), P00533 [UNDEFINED MUTATION]; experiment: Binding affinity to human partial length EGFR S752-I759del mutant expressed in bacterial expression system assessed as residual binding level at 10 uM by Kinomescan method relative to control
[8] = biological target: Tyrosine-protein kinase ITK/TSK (Homo sapiens) (UniProt Q08881); experiment: Binding affinity to wild-type human partial length ITK (R335 to L620 residues) expressed in bacterial expression system assessed as residual binding level at 10 uM by Kinomescan method relative to control
[9] = biological target: Tyrosine-protein kinase Mer (Homo sapiens) (UniProt Q12866); experiment: Binding affinity to wild-type human partial length MERTK (R557 to L884 residues) expressed in bacterial expression system assessed as residual binding level at 10 uM by Kinomescan method relative to control
Sequence of Tyrosine-protein kinase Mer (Homo sapiens) (Q12866 whole entry, the tested form may be a part): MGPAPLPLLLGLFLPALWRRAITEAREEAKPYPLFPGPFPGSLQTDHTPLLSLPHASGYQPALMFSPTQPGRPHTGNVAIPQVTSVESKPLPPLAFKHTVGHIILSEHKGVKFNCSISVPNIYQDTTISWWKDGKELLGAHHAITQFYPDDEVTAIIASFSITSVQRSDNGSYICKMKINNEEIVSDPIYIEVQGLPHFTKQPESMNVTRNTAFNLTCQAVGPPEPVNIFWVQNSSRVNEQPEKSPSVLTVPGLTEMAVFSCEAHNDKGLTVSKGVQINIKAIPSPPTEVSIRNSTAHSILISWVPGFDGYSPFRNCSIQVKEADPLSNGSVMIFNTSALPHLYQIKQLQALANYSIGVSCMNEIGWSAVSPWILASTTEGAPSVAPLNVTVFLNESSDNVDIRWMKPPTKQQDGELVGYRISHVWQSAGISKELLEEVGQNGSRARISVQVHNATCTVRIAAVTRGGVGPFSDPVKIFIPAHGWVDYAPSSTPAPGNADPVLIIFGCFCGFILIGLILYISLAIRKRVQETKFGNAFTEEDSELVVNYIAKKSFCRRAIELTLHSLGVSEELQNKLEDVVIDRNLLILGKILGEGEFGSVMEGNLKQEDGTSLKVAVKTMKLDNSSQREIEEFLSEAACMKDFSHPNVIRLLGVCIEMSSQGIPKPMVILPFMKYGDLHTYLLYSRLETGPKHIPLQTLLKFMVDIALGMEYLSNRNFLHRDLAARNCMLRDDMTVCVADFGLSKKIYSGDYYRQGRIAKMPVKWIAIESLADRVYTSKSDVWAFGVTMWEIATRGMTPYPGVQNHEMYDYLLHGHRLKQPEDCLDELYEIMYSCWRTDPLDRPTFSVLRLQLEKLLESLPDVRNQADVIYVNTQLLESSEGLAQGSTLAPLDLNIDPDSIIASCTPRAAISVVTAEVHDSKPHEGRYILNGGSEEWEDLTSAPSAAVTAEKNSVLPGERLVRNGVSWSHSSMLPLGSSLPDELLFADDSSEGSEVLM

[10] = biological target: Serine/threonine-protein kinase 3 (Homo sapiens) (UniProt Q13188); experiment: Binding affinity to wild-type human partial length MST2 (D17 to E318 residues) expressed in bacterial expression system assessed as residual binding level at 10 uM by Kinomescan method relative to control
[11] = biological target: Serine/threonine-protein kinase Nek6 (Homo sapiens) (UniProt Q9HC98); experiment: Binding affinity to wild-type human full length NEK6 (M8 to T313 residues) expressed in bacterial expression system assessed as residual binding level at 10 uM by Kinomescan method relative to control
[12] = biological target: Platelet-derived growth factor receptor alpha (Homo sapiens) (UniProt P16234); experiment: Binding affinity to wild-type human partial length PDGFRA (V575 to D1002 residues) expressed in mammalian expression system assessed as residual binding level at 10 uM by Kinomescan method relative to control
Sequence of Platelet-derived growth factor receptor alpha (Homo sapiens) (P16234 whole entry, the tested form may be a part, canonical isoform): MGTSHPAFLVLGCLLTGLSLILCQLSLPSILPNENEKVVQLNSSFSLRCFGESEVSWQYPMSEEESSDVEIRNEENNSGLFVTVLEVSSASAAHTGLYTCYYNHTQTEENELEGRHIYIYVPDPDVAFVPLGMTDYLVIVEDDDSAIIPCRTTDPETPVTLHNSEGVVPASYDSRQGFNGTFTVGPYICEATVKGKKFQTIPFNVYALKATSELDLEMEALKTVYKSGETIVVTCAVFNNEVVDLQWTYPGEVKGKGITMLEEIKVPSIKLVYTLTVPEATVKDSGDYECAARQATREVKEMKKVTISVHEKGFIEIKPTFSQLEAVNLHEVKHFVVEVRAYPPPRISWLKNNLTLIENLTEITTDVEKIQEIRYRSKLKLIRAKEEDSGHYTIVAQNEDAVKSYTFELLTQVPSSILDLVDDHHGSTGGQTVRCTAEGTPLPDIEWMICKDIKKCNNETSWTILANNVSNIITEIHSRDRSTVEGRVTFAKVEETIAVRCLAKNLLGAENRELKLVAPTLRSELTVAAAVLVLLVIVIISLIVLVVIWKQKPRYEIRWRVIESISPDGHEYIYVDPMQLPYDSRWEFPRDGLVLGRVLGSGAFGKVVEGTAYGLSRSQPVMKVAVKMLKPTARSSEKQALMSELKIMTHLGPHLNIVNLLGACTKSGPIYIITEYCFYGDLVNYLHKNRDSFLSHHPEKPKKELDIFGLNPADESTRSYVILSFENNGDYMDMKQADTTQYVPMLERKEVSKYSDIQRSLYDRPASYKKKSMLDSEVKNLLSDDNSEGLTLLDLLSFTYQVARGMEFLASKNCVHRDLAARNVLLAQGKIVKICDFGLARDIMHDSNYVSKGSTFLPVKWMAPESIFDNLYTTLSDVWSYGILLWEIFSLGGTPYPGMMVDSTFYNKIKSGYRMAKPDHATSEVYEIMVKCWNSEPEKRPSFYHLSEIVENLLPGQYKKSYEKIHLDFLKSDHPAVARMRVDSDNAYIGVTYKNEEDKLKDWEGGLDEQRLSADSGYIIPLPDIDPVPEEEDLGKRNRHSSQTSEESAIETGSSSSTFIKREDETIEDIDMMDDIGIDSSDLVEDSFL

[13] = biological target: Phosphorylase b kinase gamma catalytic chain, liver/testis isoform (Homo sapiens) (UniProt P15735); experiment: Binding affinity to wild-type human partial length PHKG2 (M1 to W300 residues) expressed in bacterial expression system assessed as residual binding level at 10 uM by Kinomescan method relative to control
Sequence of Phosphorylase b kinase gamma catalytic chain, liver/testis isoform (Homo sapiens) (P15735 whole entry, the tested form may be a part, canonical isoform): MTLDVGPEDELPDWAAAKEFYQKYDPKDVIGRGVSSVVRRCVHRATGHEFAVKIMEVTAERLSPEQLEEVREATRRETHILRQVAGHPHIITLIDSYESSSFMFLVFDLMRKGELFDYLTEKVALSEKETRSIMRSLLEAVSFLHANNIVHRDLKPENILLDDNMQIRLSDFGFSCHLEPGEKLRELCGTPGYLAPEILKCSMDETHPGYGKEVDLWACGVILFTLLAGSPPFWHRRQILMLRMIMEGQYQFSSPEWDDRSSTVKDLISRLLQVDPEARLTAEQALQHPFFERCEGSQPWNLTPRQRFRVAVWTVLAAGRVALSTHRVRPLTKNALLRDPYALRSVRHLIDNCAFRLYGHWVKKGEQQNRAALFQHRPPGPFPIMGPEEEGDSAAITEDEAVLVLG

[14] = biological target: Phosphatidylinositol 4,5-bisphosphate 3-kinase catalytic subunit gamma isoform (Homo sapiens) (UniProt P48736); experiment: Binding affinity to wild-type human partial length PIK3CG (S144 to A1102 residues) expressed in mammalian expression system assessed as residual binding level at 10 uM by Kinomescan method relative to control
[15] = biological target: Serine/threonine-protein kinase PLK4 (Homo sapiens) (UniProt O00444); experiment: Binding affinity to wild-type human partial length PLK4 (M1 to S273 residues) expressed in mammalian expression system assessed as residual binding level at 10 uM by Kinomescan method relative to control
[16] = biological target: Serine/threonine-protein kinase PRP4 homolog (Homo sapiens) (UniProt Q13523); experiment: Binding affinity to wild-type human partial length PRP4 (D657 to I1007 residues) expressed in bacterial expression system assessed as residual binding level at 10 uM by Kinomescan method relative to control
[17] = system: Proto-oncogene tyrosine-protein kinase receptor Ret (Homo sapiens), P07949 [V804M]; experiment: Binding affinity to human partial length RET V804M mutant (E713 to D1014 residues) expressed in bacterial expression system assessed as residual binding level at 10 uM by Kinomescan method relative to control
[18] = biological target: Ribosomal protein S6 kinase alpha-3 (Homo sapiens) (UniProt P51812); experiment: Binding affinity to wild-type human partial length N- terminal RSK2 kinase domain 1 (M1 to D394 residues) expressed in mammalian expression system assessed as residual binding level at 10 uM by Kinomescan method relative to control
[19] = biological target: Ribosomal protein S6 kinase alpha-2 (Homo sapiens) (UniProt Q15349); experiment: Binding affinity to wild-type human partial length C-terminal RSK3 kinase domain 2 (V403 to K700 residues) expressed in bacterial expression system assessed as residual binding level at 10 uM by Kinomescan method relative to control
Sequence of Ribosomal protein S6 kinase alpha-2 (Homo sapiens) (Q15349 whole entry, the tested form may be a part): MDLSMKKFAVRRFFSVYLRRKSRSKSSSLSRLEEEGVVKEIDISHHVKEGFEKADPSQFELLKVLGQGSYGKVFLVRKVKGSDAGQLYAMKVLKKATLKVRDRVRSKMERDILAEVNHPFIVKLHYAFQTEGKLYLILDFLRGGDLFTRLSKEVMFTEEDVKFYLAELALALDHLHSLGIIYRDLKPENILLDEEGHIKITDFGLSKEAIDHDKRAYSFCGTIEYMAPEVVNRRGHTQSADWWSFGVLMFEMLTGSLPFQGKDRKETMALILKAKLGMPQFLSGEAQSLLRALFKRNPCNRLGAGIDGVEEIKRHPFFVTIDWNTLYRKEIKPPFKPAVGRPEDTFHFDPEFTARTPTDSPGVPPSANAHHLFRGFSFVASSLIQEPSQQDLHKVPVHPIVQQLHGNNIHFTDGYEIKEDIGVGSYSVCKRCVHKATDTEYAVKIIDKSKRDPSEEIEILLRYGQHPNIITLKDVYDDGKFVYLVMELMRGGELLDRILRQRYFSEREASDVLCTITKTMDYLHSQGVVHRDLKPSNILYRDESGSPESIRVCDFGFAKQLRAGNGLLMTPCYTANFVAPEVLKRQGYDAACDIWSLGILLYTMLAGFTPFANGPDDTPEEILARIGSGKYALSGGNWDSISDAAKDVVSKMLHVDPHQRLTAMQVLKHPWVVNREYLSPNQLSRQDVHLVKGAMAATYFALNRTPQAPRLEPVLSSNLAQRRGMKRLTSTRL

[20] = biological target: Serine/threonine-protein kinase Sgk2 (Homo sapiens) (UniProt Q9HBY8); experiment: Binding affinity to wild-type human partial length SGK2 (L54 to C427 residues) expressed in mammalian expression system assessed as residual binding level at 10 uM by Kinomescan method relative to control
Sequence of Serine/threonine-protein kinase Sgk2 (Homo sapiens) (Q9HBY8 whole entry, the tested form may be a part): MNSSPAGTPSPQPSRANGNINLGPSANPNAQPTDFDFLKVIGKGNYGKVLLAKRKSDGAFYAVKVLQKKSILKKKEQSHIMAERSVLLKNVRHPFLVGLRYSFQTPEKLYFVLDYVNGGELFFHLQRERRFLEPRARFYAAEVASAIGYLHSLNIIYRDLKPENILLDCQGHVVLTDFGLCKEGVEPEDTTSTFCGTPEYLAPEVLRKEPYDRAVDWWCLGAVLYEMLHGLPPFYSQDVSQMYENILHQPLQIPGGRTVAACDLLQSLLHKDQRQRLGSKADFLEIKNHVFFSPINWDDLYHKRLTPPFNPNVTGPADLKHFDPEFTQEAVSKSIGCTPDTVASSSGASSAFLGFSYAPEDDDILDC

[21] = biological target: Serine/threonine-protein kinase SIK2 (Homo sapiens) (UniProt Q9H0K1); experiment: Binding affinity to wild-type human full length SIK2 (M1 to N926 residues) expressed in bacterial expression system assessed as residual binding level at 10 uM by Kinomescan method relative to control
[22] = biological target: Serine/threonine-protein kinase tousled-like 1 (Homo sapiens) (UniProt Q9UKI8); experiment: Binding affinity to wild-type human partial length TLK1 (K447 to A754 residues) expressed in bacterial expression system assessed as residual binding level at 10 uM by Kinomescan method relative to control
Sequence of Serine/threonine-protein kinase tousled-like 1 (Homo sapiens) (Q9UKI8 whole entry, the tested form may be a part): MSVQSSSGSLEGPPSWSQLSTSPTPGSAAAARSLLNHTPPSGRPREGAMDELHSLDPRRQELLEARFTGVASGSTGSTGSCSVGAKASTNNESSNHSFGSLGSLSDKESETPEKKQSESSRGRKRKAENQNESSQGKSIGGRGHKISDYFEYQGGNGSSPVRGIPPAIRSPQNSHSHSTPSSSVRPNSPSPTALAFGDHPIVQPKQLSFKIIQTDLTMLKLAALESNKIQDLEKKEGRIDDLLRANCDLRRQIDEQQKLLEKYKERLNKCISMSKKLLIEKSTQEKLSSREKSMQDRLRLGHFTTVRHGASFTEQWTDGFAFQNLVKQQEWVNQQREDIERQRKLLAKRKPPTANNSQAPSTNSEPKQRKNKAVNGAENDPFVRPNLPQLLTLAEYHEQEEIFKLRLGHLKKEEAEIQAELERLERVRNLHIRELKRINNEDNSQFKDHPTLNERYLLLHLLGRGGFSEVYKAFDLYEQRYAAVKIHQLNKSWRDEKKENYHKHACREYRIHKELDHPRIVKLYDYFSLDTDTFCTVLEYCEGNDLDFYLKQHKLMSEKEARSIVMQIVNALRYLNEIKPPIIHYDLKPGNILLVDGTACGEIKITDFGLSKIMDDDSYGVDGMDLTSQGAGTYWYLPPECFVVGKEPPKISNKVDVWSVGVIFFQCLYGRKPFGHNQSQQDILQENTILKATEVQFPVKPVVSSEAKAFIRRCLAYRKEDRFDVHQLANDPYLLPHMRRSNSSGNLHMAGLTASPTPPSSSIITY

[23] = biological target: Serine/threonine-protein kinase ULK3 (Homo sapiens) (UniProt Q6PHR2); experiment: Binding affinity to wild-type human partial length ULK3 (M1 to Q290 residues) expressed in mammalian expression system assessed as residual binding level at 10 uM by Kinomescan method relative to control
Sequence of Serine/threonine-protein kinase ULK3 (Homo sapiens) (Q6PHR2 whole entry, the tested form may be a part): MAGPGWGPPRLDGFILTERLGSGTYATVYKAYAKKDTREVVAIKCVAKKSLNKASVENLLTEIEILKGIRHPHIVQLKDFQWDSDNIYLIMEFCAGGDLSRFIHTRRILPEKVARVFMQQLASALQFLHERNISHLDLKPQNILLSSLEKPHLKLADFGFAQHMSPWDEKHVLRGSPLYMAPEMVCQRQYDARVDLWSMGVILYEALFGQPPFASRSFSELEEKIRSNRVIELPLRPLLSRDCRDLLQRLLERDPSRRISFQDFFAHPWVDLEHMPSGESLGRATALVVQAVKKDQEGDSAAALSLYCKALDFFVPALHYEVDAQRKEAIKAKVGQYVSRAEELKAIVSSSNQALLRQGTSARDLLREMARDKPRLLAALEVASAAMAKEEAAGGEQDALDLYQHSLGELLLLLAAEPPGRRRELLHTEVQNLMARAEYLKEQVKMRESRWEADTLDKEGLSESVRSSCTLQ

HL-60 = experiment: Cytoprotection against human HL60 cells assessed as inhibition of H2O2-induced cell death pretreated for 1 hr followed by H2O2 stimulation measured after 3 hrs by p-iodonitrotetrazolium violet dye based LDH assay; type: functional

SMILES: CC(C)N1C(=O)C(NCCCN(C)C)=C(c2cn(C)c3ccccc23)C1=O.Cl
- Activity [1]: 99%
- Activity [2]: 96%
- Activity [3]: 89%
- Activity [4]: 87%
- Activity [5]: 88%
- Activity [6]: 100%
- Activity [7]: 97%
- Activity [8]: 100%
- Activity [9]: 71%
- Activity [10]: 100%
- Activity [11]: 100%
- Activity [12]: 86%
- Activity [13]: 100%
- Activity [14]: 70%
- Activity [15]: 97%
- Activity [16]: 86%
- Activity [17]: 97%
- Activity [18]: 92%
- Activity [19]: 100%
- Activity [20]: 82%
- Activity [21]: 100%
- Activity [22]: 100%
- Activity [23]: 79%
- IC50 (HL-60): 450 nM
